Experiments:
[1] = target: T1, ACE (Oryctolagus cuniculus, UniProt P12822); conditions: from Ruditapes philippinarum; cited from earlier work
T1 construct: purchased Sigma-Aldrich (Shanghai) Trading Co., Ltd. A6778
T1 sequence (P12822 34-1310): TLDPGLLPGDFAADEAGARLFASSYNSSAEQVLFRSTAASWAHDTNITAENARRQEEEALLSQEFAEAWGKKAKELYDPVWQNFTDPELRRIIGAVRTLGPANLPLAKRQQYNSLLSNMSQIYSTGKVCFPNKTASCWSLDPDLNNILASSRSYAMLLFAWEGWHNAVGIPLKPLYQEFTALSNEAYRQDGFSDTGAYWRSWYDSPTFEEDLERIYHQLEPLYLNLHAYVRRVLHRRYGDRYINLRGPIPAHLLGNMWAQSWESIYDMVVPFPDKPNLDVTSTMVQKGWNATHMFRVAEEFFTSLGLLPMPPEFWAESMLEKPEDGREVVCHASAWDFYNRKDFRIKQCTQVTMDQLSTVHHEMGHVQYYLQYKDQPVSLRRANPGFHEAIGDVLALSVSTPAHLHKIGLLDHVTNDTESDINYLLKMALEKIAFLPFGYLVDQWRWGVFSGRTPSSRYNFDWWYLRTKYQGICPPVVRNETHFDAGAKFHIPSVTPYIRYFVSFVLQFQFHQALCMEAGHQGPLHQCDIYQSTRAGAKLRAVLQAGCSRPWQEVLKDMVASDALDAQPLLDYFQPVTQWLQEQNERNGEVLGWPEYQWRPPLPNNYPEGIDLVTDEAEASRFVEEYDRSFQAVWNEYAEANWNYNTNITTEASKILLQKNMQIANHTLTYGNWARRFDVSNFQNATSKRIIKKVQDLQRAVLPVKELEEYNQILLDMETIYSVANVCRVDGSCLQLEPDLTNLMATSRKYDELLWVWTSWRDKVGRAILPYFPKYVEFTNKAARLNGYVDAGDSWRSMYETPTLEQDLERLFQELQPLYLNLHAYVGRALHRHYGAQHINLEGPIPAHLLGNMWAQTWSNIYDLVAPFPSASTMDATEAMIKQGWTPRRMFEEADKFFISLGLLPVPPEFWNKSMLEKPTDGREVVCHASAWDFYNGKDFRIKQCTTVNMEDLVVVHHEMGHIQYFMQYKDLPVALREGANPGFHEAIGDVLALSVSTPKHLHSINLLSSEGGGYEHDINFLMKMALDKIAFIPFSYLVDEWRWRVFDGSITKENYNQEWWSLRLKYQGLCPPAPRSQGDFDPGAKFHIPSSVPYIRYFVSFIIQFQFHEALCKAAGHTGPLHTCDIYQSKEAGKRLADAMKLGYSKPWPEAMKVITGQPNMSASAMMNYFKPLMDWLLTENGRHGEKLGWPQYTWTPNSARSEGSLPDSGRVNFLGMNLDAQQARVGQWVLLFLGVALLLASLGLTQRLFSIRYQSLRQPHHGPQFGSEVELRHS
Source text: Among these peptides, ACEi peptides represent a promising alternative to synthetic drugs to control hypertension. For instance, canary seed peptides (CSP) have great potential as anti-hypertensive and anti-obesity agents due to their inhibition activity on ACE and pancreatic lipase, and their non-competitive inhibitory activity was due to their destabilization of the transition state and Zn(II) coordination in ACE [13]. […] Auwal et al. illustrated that branched aliphatic or dicarboxylic amino acids (Val, Ala, Ile, and Leu) at the N-terminus could strengthen ACEi ability of peptides. Then, Val residue at the N-terminus of TMAP2 could improve its ACEi ability. […] Therefore, Ser residue, especially its hydroxyl group, should play a vital effect in the ACEi capability of ...

[2] = tested on: systolic blood pressure; conditions: single blood pressure test; cited from earlier work
Source text: (§1) Among these peptides, ACEi peptides represent a promising alternative to synthetic drugs to control hypertension. For instance, canary seed peptides (CSP) have great potential as anti-hypertensive and anti-obesity agents due to their inhibition activity on ACE and pancreatic lipase, and their non-competitive inhibitory activity was due to their destabilization of the transition state and Zn(II) coordination in ACE [13]. Noncompetitive ...

[3] = tested on: HUVECs; conditions: cited from earlier work
Source text: Among these peptides, ACEi peptides represent a promising alternative to synthetic drugs to control hypertension. For instance, canary seed peptides (CSP) have great potential as anti-hypertensive and anti-obesity agents due to their inhibition activity on ACE and pancreatic lipase, and their non-competitive inhibitory activity was due to their destabilization of the transition state and Zn(II) coordination in ACE [13]. Noncompetitive ... || NO can antagonize the vascular tone function of angiotensin II by down-regulating the synthesis of ang II type 1 receptor and ACE, which is further involved in regulating the peripheral and central function of the cardiovascular system and exerts vasoprotective effects. […] Therefore, the deficiency of NO will increase the risks of cardiovascular in pathologic situations, and improving endothelial NO production represents reasonable therapeutic strateg ...

[4] = tested on: ET-1; conditions: cited from earlier work; for ET-1 generation: from R. philippinarum
Source text: as §1, with “... || ET-1 is a known vasoconstriction factor similar to Ang II and is capable of inducing endothelial dysfunction related to atherosclerosis and hypertension.” for “...”

[5] = tested on: HUVECs; experiment: ET-1 secretion of HUVECs; format: cell-based, human; conditions: 24 h
Source text: Skipjack tuna (K. pelamis) muscle was provided by Ningbo Today Food Co., Ltd (China). Sephadex G-25 resins and NO assay kit (Nitrate reductase approach, A012-1) were purchased from Nanjing Jiancheng Bioengineering Institute (China). ET-1 ELISA Kit (HM10108) was purchased from Shanghai Qiaodu Biotechnology Co. Ltd. (China).Trypsase (≥20,000 U/g), pepsase (≥500,000 U/g), papain (≥400,000 U/g), ACE (A6778) and N-[3-(2-Furyl) acryloyl]-Phe-Gly-Gly (FAPGG, F713) were purchased from Sigma-Aldrich (Shanghai) Trading Co., Ltd. (China). […] ACEi Peptides of (TMAP1-TMAP6) with purity higher than 98% were synthesized in Shanghai Apeptide Co. Ltd. (China).
The NO and ET-1 contents of HUVECs were determined after a 24 h treatment of ACEi peptides. […] NO and ET-1 production in treated cells were measured by employing human NO and ET-1 assay kit as manufactures’ protocol, separately.

[6] = tested on: HUVECs; experiment: HUVEC viability, MTT assay; format: cell-based, human; conditions: 24 h, 100–400 μM
Method: After thawing, HUVECs were maintained in cultured flasks and cultured to confluence in DMEM containing 1% Penicillin-Streptomycin liquid, supplemented with 10% FBS. HUVECs received the culturing process at 37°C in a humidified 5% CO2 atmosphere.
The cell viability of TMAP1 and TMAP2 on HUVECs were assessed using the MTT assay on manufacturer’s instructions. In brief, cells were incubated in 96-well plates at density of 0.8 × 10^4 cells per well with 180 μL completed DMEM. Following a confluency of 50–60% in the 96-well plates, the cells were treated with 20 μL peptides under designed concentrations (100, 200, and 400 μM) and further cultured for 24 h at 37 °C. Subsequently, the cells were added to 20 μL MTT solution (5 mg/mL) and incubated for 4 h. Finally, DMSO was added into each well, and the absorbance (A) at 490 nm was determined. The cell viability was calculated as: Cell viability (%) = (Aexperiment group/Acontrol group) × 100(2)

[7] = tested on: HUVECs; experiment: NO production in HUVECs; format: cell-based, human; conditions: 24 h
[8] = tested on: eNOS; conditions: via Akt pathway; cited from earlier work
Source text: as §1

Substance | IC50 [1] [µM] | mode of ACE inhibition [1] | systolic blood pressure [2] | NO production of HUVEC [3] | NO secretion [3] | ET-1 production [4] | ET-1 generation [4] | ET-1 secretion with NE ([5]; 200 μM peptide with NE (0.5 μM), NE alone 140.23 ± 5.81, p < 0.01) [pg/mL] | ET-1 secretion ([5]; 400 μM, control 118.68 ± 0.53) [pg/mL] | ET-1 secretion vs control group ([5]; tested concentrations (100–400 μM), p < 0.001 or p < 0.01) | cell toxicity [6] | reversal of NE-reduced NO content ([7]; 200 μM peptide with NE (0.5 μM), p < 0.001 vs NE) | NO level ([7]; 400 μM, control 34.41 ± 1.27, p < 0.001) [μmol/gprot] | NO level vs control group ([7]; 100, 200 and 400 μM, p < 0.001) | expression of phosphorylated eNOS in HUVECs [8] | NO synthesis in HUVECs ([3]; via Akt pathway)
GRVSNCAA [ACEi peptide from Ruditapes philippinarum] | 57.9 | Noncompetitive | lower systolic blood pressure | increasing the NO production | promote NO secretion | reduced ET-1 production | significantly lessening ET-1 generation | – | – | – | – | – | – | – | – | –
H-VDRYF-OH [TMAP2, Val-Asp-Arg-Tyr-Phe] | – | – | – | – | – | – | – | 111.78 ± 3.06 | 92.09 ± 4.58 | decreased | did not induce significant cell toxicity | partially offset | 51.88 ± 2.16 | significantly increased | – | –
KYIPIQ [ACEi peptide found in yak milk casein] | – | – | – | – | – | – | – | – | – | – | – | – | – | – | promote NO synthesis and the expression of phosphorylated endothelial NO synthase (eNOS) in HUVECs | promote NO synthesis
TYLPVH [ACEi peptide from Ruditapes philippinarum] | 1.37 | Noncompetitive | lower systolic blood pressure | increasing the NO production | promote NO secretion | reduced ET-1 production | significantly lessening ET-1 generation | – | – | – | – | – | – | – | – | –
